Measured values published in publication PMC5660082, “Bioluminescence imaging of G protein-coupled receptor activation in living mice” (Nature Communications, 2017).
Where two headings read alike, the source gives them in different places.

Target: T1, Sphingosine-1-phosphate receptor 1 (S1P1) (Mus musculus, UniProt O08530)
T1 construct: gene S1pr1; mouse S1pr1 coding region with C terminus linked to C-terminal firefly luciferase fragment (amino acids #394–550), S1P1–CLuc; with NLuc–β-arrestin2
Assay: split luciferase β-arrestin2 recruitment (bioluminescence) in knock-in mouse embryonic fibroblasts
Assay type: cell-based

T1 sequence (O08530 2-382): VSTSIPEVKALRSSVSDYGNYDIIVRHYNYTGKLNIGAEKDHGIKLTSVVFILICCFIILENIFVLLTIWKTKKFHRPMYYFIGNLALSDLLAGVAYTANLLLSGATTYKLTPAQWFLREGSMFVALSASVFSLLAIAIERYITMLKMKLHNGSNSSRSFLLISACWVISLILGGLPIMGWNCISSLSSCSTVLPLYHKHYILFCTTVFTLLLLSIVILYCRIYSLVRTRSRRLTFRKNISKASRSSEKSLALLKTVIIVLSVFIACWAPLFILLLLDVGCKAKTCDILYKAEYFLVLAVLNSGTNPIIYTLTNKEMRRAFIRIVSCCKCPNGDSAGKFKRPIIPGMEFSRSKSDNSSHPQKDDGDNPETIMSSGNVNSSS
T1 sequence (Q91YI4 whole entry partner, the tested form may be a part): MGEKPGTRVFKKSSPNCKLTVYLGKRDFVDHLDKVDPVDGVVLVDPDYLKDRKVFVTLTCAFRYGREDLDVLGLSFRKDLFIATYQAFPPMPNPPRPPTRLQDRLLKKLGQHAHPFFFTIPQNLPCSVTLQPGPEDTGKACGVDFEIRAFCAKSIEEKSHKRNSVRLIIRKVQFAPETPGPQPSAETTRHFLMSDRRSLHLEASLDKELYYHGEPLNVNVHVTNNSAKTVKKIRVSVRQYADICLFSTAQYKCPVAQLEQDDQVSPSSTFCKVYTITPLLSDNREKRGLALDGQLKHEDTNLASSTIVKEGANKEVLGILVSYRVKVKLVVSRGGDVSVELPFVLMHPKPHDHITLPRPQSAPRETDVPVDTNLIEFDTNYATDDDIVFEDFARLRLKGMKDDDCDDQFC

| EC50 (read-out: EC50) | SMILES | EC50 |
| --- | --- | --- |
|  | CCCCCCCCCCCCCCC[C@@H](O)[C@@H](N)COP(=O)(O)O [dihydro-S1P] | 0.0324 ± 0.0005 µM |
| 0.0194 ± 0.0008 µM | CCCCCCCCCCCCC/C=C/[C@@H](O)[C@@H](N)COP(=O)(O)O [S1P] |  |
